Source: the OligoGym collection
HELM strings list units from the 5' end as sugar, base in round brackets, then linkage (d deoxyribose, r ribose, m 2'-O-methyl, p phosphodiester). [sp] = phosphorothioate linkage

Assays:
CTNNB1 [1] = test: HEK293-TLR7, 100 nM ASO, then resiquimod
CTNNB1 [2] = test: HEK293-TLR8, 100 nM ASO, then resiquimod

| Substance | TLR7 signal (NF-kB luciferase) (% of resiquimod alone) (CTNNB1 [1]) | TLR8 potentiation (NF-kB luciferase) (fold of resiquimod alone) (CTNNB1 [2]) |
| --- | --- | --- |
| RNA1{m(A)[sp].m(G)[sp].m(A)[sp].m(U)[sp].m(C)[sp].d(T)[sp].d(G)[sp].d(G)[sp].d(C)[sp].d(A)[sp].d(G)[sp].d(C)[sp].d(C)[sp].d(C)[sp].d(A)[sp].m(U)[sp].m(C)[sp].m(A)[sp].m(A)[sp].m(C)}$$$$ | 55.4 | 1.89 |
| RNA1{m(A)[sp].m(U)[sp].m(U)[sp].m(U)[sp].m(U)[sp].d(A)[sp].d(A)[sp].d(G)[sp].d(C)[sp].d(A)[sp].d(T)[sp].d(A)[sp].d(T)[sp].d(T)[sp].d(A)[sp].m(A)[sp].m(A)[sp].m(A)[sp].m(A)[sp].m(G)}$$$$ | 47 | 2.37 |
| RNA1{m(C)[sp].m(A)[sp].m(A)[sp].m(U)[sp].m(G)[sp].d(G)[sp].d(G)[sp].d(A)[sp].d(G)[sp].d(A)[sp].d(A)[sp].d(T)[sp].d(A)[sp].d(A)[sp].d(A)[sp].m(G)[sp].m(C)[sp].m(A)[sp].m(G)[sp].m(C)}$$$$ | 73.7 | 2.5 |
| RNA1{m(C)[sp].m(A)[sp].m(C)[sp].m(C)[sp].m(C)[sp].d(A)[sp].d(C)[sp].d(T)[sp].d(T)[sp].d(G)[sp].d(G)[sp].d(C)[sp].d(A)[sp].d(G)[sp].d(A)[sp].m(C)[sp].m(C)[sp].m(A)[sp].m(U)[sp].m(C)}$$$$ | 91.5 | 1.12 |
| RNA1{m(C)[sp].m(A)[sp].m(G)[sp].m(A)[sp].m(U)[sp].d(A)[sp].d(G)[sp].d(C)[sp].d(A)[sp].d(C)[sp].d(C)[sp].d(T)[sp].d(T)[sp].d(C)[sp].d(A)[sp].m(G)[sp].m(C)[sp].m(A)[sp].m(C)[sp].m(U)}$$$$ | 126 | 3.22 |
| RNA1{m(C)[sp].m(A)[sp].m(G)[sp].m(A)[sp].m(U)[sp].d(T)[sp].d(A)[sp].d(C)[sp].d(A)[sp].d(A)[sp].d(T)[sp].d(T)[sp].d(A)[sp].d(A)[sp].d(T)[sp].m(U)[sp].m(A)[sp].m(G)[sp].m(A)[sp].m(G)}$$$$ | 80.8 | 2.76 |
| RNA1{m(C)[sp].m(A)[sp].m(U)[sp].m(A)[sp].m(U)[sp].d(T)[sp].d(A)[sp].d(A)[sp].d(A)[sp].d(A)[sp].d(A)[sp].d(G)[sp].d(G)[sp].d(A)[sp].d(A)[sp].m(A)[sp].m(C)[sp].m(U)[sp].m(A)[sp].m(A)}$$$$ | 108 | 2.31 |
| RNA1{m(C)[sp].m(C)[sp].m(A)[sp].m(C)[sp].m(C)[sp].d(C)[sp].d(A)[sp].d(C)[sp].d(T)[sp].d(T)[sp].d(G)[sp].d(G)[sp].d(C)[sp].d(A)[sp].d(G)[sp].m(A)[sp].m(C)[sp].m(C)[sp].m(A)[sp].m(U)}$$$$ | 86.9 | 0.99 |
| RNA1{m(C)[sp].m(G)[sp].m(A)[sp].m(A)[sp].m(U)[sp].d(G)[sp].d(A)[sp].d(A)[sp].d(T)[sp].d(T)[sp].d(A)[sp].d(A)[sp].d(A)[sp].d(A)[sp].d(G)[sp].m(U)[sp].m(U)[sp].m(U)[sp].m(A)[sp].m(A)}$$$$ | 104 | 3.01 |
| RNA1{m(C)[sp].m(G)[sp].m(U)[sp].m(G)[sp].m(U)[sp].d(C)[sp].d(T)[sp].d(G)[sp].d(G)[sp].d(A)[sp].d(A)[sp].d(G)[sp].d(C)[sp].d(T)[sp].d(T)[sp].m(C)[sp].m(C)[sp].m(U)[sp].m(U)[sp].m(U)}$$$$ | 67 | 2.89 |
| RNA1{m(C)[sp].m(U)[sp].m(C)[sp].m(A)[sp].m(U)[sp].d(T)[sp].d(A)[sp].d(T)[sp].d(A)[sp].d(T)[sp].d(T)[sp].d(T)[sp].d(A)[sp].d(C)[sp].d(T)[sp].m(A)[sp].m(A)[sp].m(A)[sp].m(G)[sp].m(C)}$$$$ | 93.5 | 3.46 |
| RNA1{m(C)[sp].m(U)[sp].m(C)[sp].m(U)[sp].m(U)[sp].d(G)[sp].d(A)[sp].d(A)[sp].d(G)[sp].d(C)[sp].d(A)[sp].d(T)[sp].d(C)[sp].d(G)[sp].d(T)[sp].m(A)[sp].m(U)[sp].m(C)[sp].m(A)[sp].m(C)}$$$$ | 93.4 | 2.71 |
| RNA1{m(C)[sp].m(U)[sp].m(U)[sp].m(A)[sp].m(U)[sp].d(A)[sp].d(A)[sp].d(T)[sp].d(T)[sp].d(A)[sp].d(T)[sp].d(T)[sp].d(G)[sp].d(C)[sp].d(A)[sp].m(A)[sp].m(G)[sp].m(U)[sp].m(G)[sp].m(A)}$$$$ | 74.9 | 2.78 |
| RNA1{m(C)[sp].m(U)[sp].m(U)[sp].m(A)[sp].m(U)[sp].d(T)[sp].d(T)[sp].d(T)[sp].d(A)[sp].d(A)[sp].d(G)[sp].d(C)[sp].d(A)[sp].d(T)[sp].d(A)[sp].m(U)[sp].m(U)[sp].m(A)[sp].m(A)[sp].m(A)}$$$$ | 123 | 2.88 |
| RNA1{m(C)[sp].m(U)[sp].m(U)[sp].m(G)[sp].m(G)[sp].d(T)[sp].d(G)[sp].d(T)[sp].d(C)[sp].d(G)[sp].d(G)[sp].d(C)[sp].d(T)[sp].d(G)[sp].d(G)[sp].m(U)[sp].m(C)[sp].m(A)[sp].m(G)[sp].m(A)}$$$$ | 79.8 | 2.15 |
| RNA1{m(G)[sp].m(C)[sp].m(C)[sp].m(C)[sp].m(A)[sp].d(T)[sp].d(C)[sp].d(C)[sp].d(A)[sp].d(T)[sp].d(G)[sp].d(A)[sp].d(G)[sp].d(G)[sp].d(T)[sp].m(C)[sp].m(C)[sp].m(U)[sp].m(G)[sp].m(G)}$$$$ | 31.7 | 1.46 |
| RNA1{m(G)[sp].m(C)[sp].m(C)[sp].m(G)[sp].m(C)[sp].d(T)[sp].d(T)[sp].d(T)[sp].d(T)[sp].d(C)[sp].d(T)[sp].d(G)[sp].d(T)[sp].d(C)[sp].d(T)[sp].m(G)[sp].m(G)[sp].m(U)[sp].m(U)[sp].m(C)}$$$$ | 70.5 | 2 |
| RNA1{m(G)[sp].m(C)[sp].m(G)[sp].m(U)[sp].m(G)[sp].d(T)[sp].d(C)[sp].d(T)[sp].d(G)[sp].d(G)[sp].d(A)[sp].d(A)[sp].d(G)[sp].d(C)[sp].d(T)[sp].m(U)[sp].m(C)[sp].m(C)[sp].m(U)[sp].m(U)}$$$$ | 40.7 | 0.91 |
| RNA1{m(G)[sp].m(C)[sp].m(U)[sp].m(U)[sp].m(A)[sp].d(T)[sp].d(T)[sp].d(T)[sp].d(T)[sp].d(A)[sp].d(A)[sp].d(G)[sp].d(C)[sp].d(A)[sp].d(T)[sp].m(A)[sp].m(U)[sp].m(U)[sp].m(A)[sp].m(A)}$$$$ | 41.1 | 1.9 |
| RNA1{m(G)[sp].m(G)[sp].m(A)[sp].m(U)[sp].m(C)[sp].d(T)[sp].d(G)[sp].d(C)[sp].d(A)[sp].d(T)[sp].d(G)[sp].d(C)[sp].d(C)[sp].d(C)[sp].d(T)[sp].m(C)[sp].m(A)[sp].m(U)[sp].m(C)[sp].m(U)}$$$$ | 47.9 | 1.15 |
| RNA1{m(G)[sp].m(G)[sp].m(C)[sp].m(C)[sp].m(A)[sp].d(T)[sp].d(C)[sp].d(T)[sp].d(C)[sp].d(T)[sp].d(G)[sp].d(C)[sp].d(T)[sp].d(T)[sp].d(C)[sp].m(U)[sp].m(U)[sp].m(G)[sp].m(G)[sp].m(U)}$$$$ | 35.9 | 0.82 |
| RNA1{m(G)[sp].m(G)[sp].m(G)[sp].m(A)[sp].m(A)[sp].d(A)[sp].d(G)[sp].d(G)[sp].d(T)[sp].d(T)[sp].d(A)[sp].d(T)[sp].d(G)[sp].d(C)[sp].d(A)[sp].m(A)[sp].m(G)[sp].m(G)[sp].m(U)[sp].m(C)}$$$$ | 51.4 | 1.76 |
| RNA1{m(G)[sp].m(G)[sp].m(G)[sp].m(U)[sp].m(C)[sp].d(C)[sp].d(A)[sp].d(C)[sp].d(C)[sp].d(A)[sp].d(C)[sp].d(T)[sp].d(A)[sp].d(G)[sp].d(C)[sp].m(C)[sp].m(A)[sp].m(G)[sp].m(U)[sp].m(A)}$$$$ | 33.5 | 1.18 |
| RNA1{m(G)[sp].m(G)[sp].m(G)[sp].m(U)[sp].m(C)[sp].d(C)[sp].d(A)[sp].d(T)[sp].d(A)[sp].d(C)[sp].d(C)[sp].d(C)[sp].d(A)[sp].d(A)[sp].d(G)[sp].m(G)[sp].m(C)[sp].m(A)[sp].m(U)[sp].m(C)}$$$$ | 47.6 | 1.08 |
| RNA1{m(G)[sp].m(G)[sp].m(U)[sp].m(C)[sp].m(C)[sp].d(A)[sp].d(T)[sp].d(A)[sp].d(C)[sp].d(C)[sp].d(C)[sp].d(A)[sp].d(A)[sp].d(G)[sp].d(G)[sp].m(C)[sp].m(A)[sp].m(U)[sp].m(C)[sp].m(C)}$$$$ | 105 | 1 |
| RNA1{m(G)[sp].m(G)[sp].m(U)[sp].m(G)[sp].m(G)[sp].d(T)[sp].d(G)[sp].d(G)[sp].d(C)[sp].d(C)[sp].d(A)[sp].d(C)[sp].d(C)[sp].d(C)[sp].d(A)[sp].m(U)[sp].m(C)[sp].m(U)[sp].m(C)[sp].m(A)}$$$$ | 75.6 | 1.11 |
| RNA1{m(G)[sp].m(U)[sp].m(C)[sp].m(C)[sp].m(A)[sp].d(A)[sp].d(G)[sp].d(A)[sp].d(T)[sp].d(C)[sp].d(A)[sp].d(G)[sp].d(C)[sp].d(A)[sp].d(G)[sp].m(U)[sp].m(C)[sp].m(U)[sp].m(C)[sp].m(A)}$$$$ | 32.6 | 1.96 |
